Assay results reported in patent US6984399B2 (Lek Pharmaceuticals d.d., priority 1999, dated 2006).

Columns and labels:
[1] = particle size and BET specific surface area of lovastatin crystals; assay type: physicochemical; conditions: for d(0.9) / d(0.1) / d(0.5): particle size; for d(0.9): 90% (volume) of particles below; for Spec. Pov.: specific surface area, BET method
[2] = dissolution of lovastatin samples of varying particle size in water (Table I); assay type: physicochemical; conditions: suspension in 0.1% Tween 80 diluted 100 times
Source text: At first we have prepared three samples of lovastatin* with varying particle size and compared dissolution** of those samples in water (Table I).

[3] = room temperature; cited from earlier work
[4] = oral, cited from earlier work

Structure (SMILES) | d(0.9) [1] [μm] | concentration of dissolved lovastatin ([2]; time 0 min) [ng/mL] | concentration of dissolved lovastatin ([2]; time 1 min) [ng/mL] | concentration of dissolved lovastatin ([2]; time 3 min) [ng/mL] | concentration of dissolved lovastatin ([2]; time 5 min) [ng/mL] | concentration of dissolved lovastatin ([2]; time 10 min) [ng/mL] | concentration of dissolved lovastatin ([2]; time 30 min) [ng/mL] | concentration of dissolved lovastatin ([2]; time 50 min) [ng/mL] | d(0.1) [1] [μm] | d(0.5) [1] [μm] | Spec. Pov. [1] [m^2/g] | volume of water required to dissolve 20 mg [3] | time to peak concentration in blood of active form ([4]; post-dose) [h] | share of total dose that crosses the intestinal membrane [4] [%]
CC[C@H](C)C(=O)O[C@H]1C[C@@H](C)C=C2C=C[C@H](C)[C@H](CC[C@@H]3C[C@@H](O)CC(=O)O3)[C@H]21 [Example 6, lovastatin] | 22 |  |  |  |  |  |  |  |  |  |  |  |  | 
CC[C@H](C)C(=O)O[C@H]1C[C@@H](C)C=C2C=C[C@H](C)[C@H](CC[C@@H]3C[C@@H](O)CC(=O)O3)[C@H]21 [A, lovastatin] | 22 | 0 | 650 | 770 | 780 | 810 | 880 | 900 | 1.6 | 6 | 3.3 |  |  | 
CC[C@H](C)C(=O)O[C@H]1C[C@@H](C)C=C2C=C[C@H](C)[C@H](CC[C@@H]3C[C@@H](O)CC(=O)O3)[C@H]21 [Example 4, lovastatin] | 163 |  |  |  |  |  |  |  |  |  |  |  |  | 
CC[C@H](C)C(=O)O[C@H]1C[C@@H](C)C=C2C=C[C@H](C)[C@H](CC[C@@H]3C[C@@H](O)CC(=O)O3)[C@H]21 [Example 5, lovastatin] | 77 |  |  |  |  |  |  |  |  |  | 1.3 |  |  | 
CC[C@H](C)C(=O)O[C@H]1C[C@@H](C)C=C2C=C[C@H](C)[C@H](CC[C@@H]3C[C@@H](O)CC(=O)O3)[C@H]21 [B, lovastatin] | 31 | 0 | 500 | 680 | 710 | 780 | 870 | 950 | 1.4 | 7.9 | 2.2 |  |  | 
CC[C@H](C)C(=O)O[C@H]1C[C@@H](C)C=C2C=C[C@H](C)[C@H](CC[C@@H]3C[C@@H](O)CC(=O)O3)[C@H]21 [lovastatin] |  |  |  |  |  |  |  |  |  |  |  | about 15 litres | 2.8 | 31
CC[C@H](C)C(=O)O[C@H]1C[C@@H](C)C=C2C=C[C@H](C)[C@H](CC[C@@H]3C[C@@H](O)CC(=O)O3)[C@H]21 [C, lovastatin] | 163 | 0 | 250 | 300 | 400 | 560 | 820 | 940 | 17 | 54 | 0.7 |  |  | 
